# System: PC3-PIP (PSMA positive) and PC-3 tumors (PSMA negative)
# Assay: Biodistribution of 177Lu labeled compounds 4 and 7 in tumor bearing nude mice
# Assay type: in vivo, CD-1 male nude mice
# Procedure: ^177Lu labeling: To 10 μg ligand (1 mg/mL DMSO) were added 15 μL of 2.0 N NaOAc, 400 μL 0.05 N HCl, and 20 μL ^177Lu-solution (780 μCi (Capintec setting 450 (reading×10)). The reaction was heated with a heating block at 95° C. for 1 hour in a 3 mL closed vial. After cooling, the sample was analyzed by HPLC (HPLC: Eclipse XDB-C18 150×4.6 mm, gradient, 1 mL/min; A: 0.1% TFA in water; B: 0.1% TFA in ACN: 0-4 min A/B 85/15%; 4-11 min: from 85/15 to 30/70%; 11-14 min: from 30/70% to 85/15%). Radiochemical purity of [^177Lu]4 (FIG. 2) and [^177Lu]7 was >98% and injected doses were stable at 48 hr after formulation.
# For iv injection 150 μL of labeled solution was diluted with saline to 3.75mL. Mice were injected with 150 μL of formulated dose. Injected radioactivity was 100 μCi and PSMA ligand amount was constant at 0.72 nmole/mouse.
# Biodistribution of [^68Ga]4, [^177Lu]4 and [^177Lu]7 was determined in nude mice bearing PIP PC3 (PSMA positive) and PC3 (PSMA negative) tumors on the left and right shoulder, respectively, over a period of 192 h (Table 3a, 3b and 3c). […] The uptake in PC3 tumors (PSMA negative) of both ligands, [^177Lu]4 and [^177Lu]7, was clearly much lower than those of PC-3 PIP tumors (PSMA positive).
smiles,measurement,setting,value
O=C(O)CC[C@H](NC(=O)N[C@@H](CCCCNC(=O)[C@H](Cc1ccccc1)NC(=O)COc1ccc(C[C@H](NC(=O)CNC(=O)CCC(C(=O)O)N2CCN(CC(=O)O)CCN(C(CCC(=O)NCCOCCOCCNC(=O)CCCc3ccc(I)cc3)C(=O)O)CCN(CC(=O)O)CC2)C(=O)O)cc1)C(=O)O)C(=O)O.[177Lu] (some centres unmarked) [[^177Lu]7],Biodistribution: Skin,24 hrs (1 day),1.37 ± 0.63 % dose/g
same,Biodistribution: Spleen,24 hrs (1 day),0.75 ± 0.17 % dose/g
same,Biodistribution: Stomach,24 hrs (1 day),0.36 ± 0.23 % dose/g
same,Biodistribution: Blood,48 hrs (2 days),0.84 ± 0.25 % dose/g
same,Biodistribution: Bone,48 hrs (2 days),0.19 ± 0.03 % dose/g
same,Biodistribution: Brain,48 hrs (2 days),0.06 ± 0.01 % dose/g
same,Biodistribution: Heart,48 hrs (2 days),0.59 ± 0.21 % dose/g
same,Biodistribution: Intestine,48 hrs (2 days),0.23 ± 0.07 % dose/g
same,Biodistribution: Kidney,48 hrs (2 days),16.13 ± 6.19 % dose/g
same,Biodistribution: Liver,48 hrs (2 days),0.42 ± 0.08 % dose/g
same,Biodistribution: Lung,48 hrs (2 days),0.93 ± 0.26 % dose/g
same,Biodistribution: Muscle,48 hrs (2 days),0.22 ± 0.07 % dose/g
same,Biodistribution: PC3 tumor,48 hrs (2 days),1.77 ± 0.55 % dose/g
same,Biodistribution: PIP PC3 tumor,48 hrs (2 days),41.80 ± 10.71 % dose/g
same,Biodistribution: Pancreas,48 hrs (2 days),0.39 ± 0.18 % dose/g
same,Biodistribution: Skin,48 hrs (2 days),0.63 ± 0.03 % dose/g
same,Biodistribution: Spleen,48 hrs (2 days),1.27 ± 1.12 % dose/g
same,Biodistribution: Stomach,48 hrs (2 days),0.18 ± 0.02 % dose/g
same,Biodistribution: Blood,96 hrs (4 days),0.11 ± 0.10 % dose/g
same,Biodistribution: Bone,96 hrs (4 days),0.11 ± 0.01 % dose/g
same,Biodistribution: Brain,96 hrs (4 days),0.02 ± 0.01 % dose/g
same,Biodistribution: Heart,96 hrs (4 days),0.30 ± 0.23 % dose/g
same,Biodistribution: Intestine,96 hrs (4 days),0.19 ± 0.18 % dose/g
same,Biodistribution: Kidney,96 hrs (4 days),4.28 ± 2.61 % dose/g
same,Biodistribution: Liver,96 hrs (4 days),0.22 ± 0.09 % dose/g
same,Biodistribution: Lung,96 hrs (4 days),0.31 ± 0.22 % dose/g
same,Biodistribution: Muscle,96 hrs (4 days),0.18 ± 0.12 % dose/g
same,Biodistribution: PC3 tumor,96 hrs (4 days),0.97 ± 0.56 % dose/g
same,Biodistribution: PIP PC3 tumor,96 hrs (4 days),24.23 ± 13.09 % dose/g
same,Biodistribution: Pancreas,96 hrs (4 days),0.09 ± 0.06 % dose/g
same,Biodistribution: Skin,96 hrs (4 days),0.46 ± 0.22 % dose/g
same,Biodistribution: Spleen,96 hrs (4 days),0.52 ± 0.30 % dose/g
same,Biodistribution: Stomach,96 hrs (4 days),0.09 ± 0.06 % dose/g
same,Biodistribution: Blood,192 hrs (8 days),0.01 ± 0.00 % dose/g
same,Biodistribution: Bone,192 hrs (8 days),0.09 ± 0.01 % dose/g
same,Biodistribution: Brain,192 hrs (8 days),0.01 ± 0.00 % dose/g
same,Biodistribution: Heart,192 hrs (8 days),0.07 ± 0.01 % dose/g
same,Biodistribution: Intestine,192 hrs (8 days),0.12 ± 0.05 % dose/g
same,Biodistribution: Kidney,192 hrs (8 days),1.58 ± 0.43 % dose/g
same,Biodistribution: Liver,192 hrs (8 days),0.12 ± 0.02 % dose/g
same,Biodistribution: Lung,192 hrs (8 days),0.09 ± 0.02 % dose/g
same,Biodistribution: Muscle,192 hrs (8 days),0.03 ± 0.00 % dose/g
same,Biodistribution: PC3 tumor,192 hrs (8 days),0.35 ± 0.03 % dose/g
same,Biodistribution: PIP PC3 tumor,192 hrs (8 days),13.14 ± 2.57 % dose/g
same,Biodistribution: Pancreas,192 hrs (8 days),0.03 ± 0.00 % dose/g
same,Biodistribution: Skin,192 hrs (8 days),0.16 ± 0.03 % dose/g
same,Biodistribution: Spleen,192 hrs (8 days),0.30 ± 0.07 % dose/g
same,Biodistribution: Stomach,192 hrs (8 days),0.10 ± 0.09 % dose/g
same,Time of highest uptake in PIP PC3 tumors,"mouse, in vivo",48 h
same,Uptake in PC3 tumors (PSMA negative) versus PC-3 PIP tumors (PSMA positive),"mouse, in vivo",much lower

# Reference: US20220125959A1, “PROSTATE-SPECIFIC MEMBRANE ANTIGEN (PSMA) INHIBITORS AS DIAGNOSTIC AND RADIONUCLIDE THERAPEUTIC AGENTS” (FIVE ELEVEN PHARMA INC., priority 2019, published 2022)
